What was measured:
Format in all cases: in vivo
[1] = test system: barnyardgrass (Echinochloa crusgalli, ECHCG); experiment: Post-emerge greenhouse herbicide test, phytotoxicity rating; settings: 14 days after application
How it was run: (§1)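 Compounds in acetone with 0.25% v/v non-ionic surfactant were track-sprayed at 187 l/ha over plants at the 2-3 leaf stage, at 63 to 1000 g ai/ha. Pots were bottom-watered. Injury was scored visually 14 days later on a 0-100 scale, where 0 is no damage and 100 is complete plant death.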

[2] = test system: redroot pigweed (Amaranthus retroflexus, AMARE); experiment: as above; settings: 14 days after application
How it was run: as §1

[3] = test system: lambsquarters (Chenopodium album, CHEAL); experiment: as above; settings: 14 days after application
How it was run: as §1

[4] = test system: large crabgrass (Digitaria sanguinalis, DIGSA); experiment: as above; settings: 14 days after application
How it was run: as §1

[5] = test system: Johnsongrass (Sorghum halepense, SORHA); experiment: as above; settings: 14 days after application
How it was run: as §1

[6] = test system: velvetleaf (Abutilon theophrasti, ABUTH); experiment: as above; settings: 14 days after application
How it was run: as §1

[7] = test system: green foxtail (Setaria viridis, SETVI); experiment: as above; settings: 14 days after application
How it was run: as §1

[8] = test system: ivyleaf morningglory (Ipomoea hederacea, IPOHE); experiment: as above; settings: 14 days after application
How it was run: as §1

[9] = test system: upland rice (Oryza sp., var.Tebonnet, RICE); experiment: Pre-emerge greenhouse test, crop damage rating; settings: 14 days after application, rating scale 0-100
How it was run: (§2)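 Seeds sown in sandy loam mix one day before track-sprayer application of compounds in acetone at 125–1000 g ai/ha (187 l/ha), then surface-watered to incorporate and bottom-watered. Visual rating 14 days after application on a 0–100 scale (0 = no damage, 100 = all plants dead).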

[10] = test system: field corn (Zea mays L., var. Dekalb 535, CORN); experiment: Pre-emerge greenhouse test, crop damage rating; settings: 14 days after application, rating scale 0-100
How it was run: as §2

[11] = test system: soybean (Glycine max L., var. Pella 86, SOY); experiment: Pre-emerge greenhouse test, crop damage rating; settings: 14 days after application, rating scale 0-100
How it was run: as §2

[12] = test system: soybean (Glycine max L., var. Pella 86, SOY); experiment: Post-emerge greenhouse test, crop damage rating; settings: 14 days after application
How it was run: as §1

[13] = test system: barnyardgrass (Echinochloa crusgalli, ECHCG); experiment: Pre-emerge greenhouse herbicide test, phytotoxicity rating; settings: 14 days after application, rating scale 0-100
How it was run: as §2

[14] = test system: redroot pigweed (Amaranthus retroflexus, AMARE); experiment: as above; settings: 14 days after application, rating scale 0-100
How it was run: as §2

[15] = test system: lambsquarters (Chenopodium album, CHEAL); experiment: as above; settings: 14 days after application, rating scale 0-100
How it was run: as §2

[16] = test system: large crabgrass (Digitaria sanguinalis, DIGSA); experiment: as above; settings: 14 days after application, rating scale 0-100
How it was run: as §2

[17] = test system: Johnsongrass (Sorghum halepense, SORHA); experiment: as above; settings: 14 days after application, rating scale 0-100
How it was run: as §2

[18] = test system: velvetleaf (Abutilon theophrasti, ABUTH); experiment: as above; settings: 14 days after application, rating scale 0-100
How it was run: as §2

[19] = test system: common ragweed (Ambrosia artemisiifolia L., AMBEL); experiment: as above; settings: 14 days after application, rating scale 0-100
How it was run: as §2

[20] = test system: green foxtail (Setaria viridis, SETVI); experiment: as above; settings: 14 days after application, rating scale 0-100
How it was run: as §2

[21] = test system: sicklepod (Cassia obtusifolia, CASOB); experiment: as above; settings: 14 days after application, rating scale 0-100
How it was run: as §2

[22] = test system: ivyleaf morningglory (Ipomoea hederacea, IPOHE); experiment: as above; settings: 14 days after application, rating scale 0-100
How it was run: as §2

[23] = test system: common ragweed (Ambrosia artemisiifolia L., AMBEL); experiment: Post-emerge greenhouse herbicide test, phytotoxicity rating; settings: 14 days after application
How it was run: as §1

[24] = test system: upland rice (Oryza sp., var.Tebonnet, RICE); experiment: Post-emerge greenhouse test, crop damage rating; settings: 14 days after application
How it was run: as §1

[25] = test system: field corn (Zea mays L., var. Dekalb 535, CORN); experiment: Post-emerge greenhouse test, crop damage rating; settings: 14 days after application
How it was run: as §1

CCOC(=O)C(C)Oc1ccc(Oc2cc(-n3c(=O)n4n(c3=S)CCCC4)c(F)cc2Cl)cc1 (stereo not shown) [Compound 8-11]
20: crop damage rating SOY ([11]; 125 g ai/ha) | phytotoxicity rating DIGSA ([16]; 125 g ai/ha) | CORN crop damage rating (0-100) ([25]; 63 g al/ha)
30: SETVI phytotoxicity rating (0-100) ([7]; 63 g al/ha) | crop damage rating SOY ([11]; 500 g ai/ha)
99: SORHA phytotoxicity rating (0-100) ([5]; 500 g al/ha)
80: crop damage rating RICE ([9]; 500 g ai/ha) | phytotoxicity rating DIGSA ([16]; 500 g ai/ha)
0: crop damage rating CORN ([10]; 125 g ai/ha) | crop damage rating CORN ([10]; 500 g ai/ha)
60: SETVI phytotoxicity rating (0-100) ([7]; 500 g al/ha) | phytotoxicity rating ECHCG ([13]; 125 g ai/ha) | phytotoxicity rating CASOB ([21]; 500 g ai/ha)
70: phytotoxicity rating ECHCG ([13]; 500 g ai/ha) | phytotoxicity rating SORHA ([17]; 125 g ai/ha) | phytotoxicity rating CASOB ([21]; 125 g ai/ha) | phytotoxicity rating IPOHE ([22]; 125 g ai/ha)
40: phytotoxicity rating SORHA ([17]; 500 g ai/ha) | RICE crop damage rating (0-100) ([24]; 63 g al/ha)
100: ECHCG phytotoxicity rating (0-100) ([1]; 63 g al/ha) | ECHCG phytotoxicity rating (0-100) ([1]; 500 g al/ha) | AMARE phytotoxicity rating (0-100) ([2]; 63 g al/ha) | AMARE phytotoxicity rating (0-100) ([2]; 500 g al/ha) | CHEAL phytotoxicity rating (0-100) ([3]; 63 g al/ha) | CHEAL phytotoxicity rating (0-100) ([3]; 500 g al/ha) | ABUTH phytotoxicity rating (0-100) ([6]; 63 g al/ha) | ABUTH phytotoxicity rating (0-100) ([6]; 500 g al/ha) | IPOHE phytotoxicity rating (0-100) ([8]; 63 g al/ha) | IPOHE phytotoxicity rating (0-100) ([8]; 500 g al/ha) | SOY crop damage rating (0-100) ([12]; 500 g al/ha) | phytotoxicity rating AMARE ([14]; 125 g ai/ha) | phytotoxicity rating AMARE ([14]; 500 g ai/ha) | phytotoxicity rating CHEAL ([15]; 125 g ai/ha) | phytotoxicity rating CHEAL ([15]; 500 g ai/ha) | phytotoxicity rating ABUTH ([18]; 125 g ai/ha) | phytotoxicity rating ABUTH ([18]; 500 g ai/ha) | phytotoxicity rating AMBEL ([19]; 500 g ai/ha) | phytotoxicity rating SETVI ([20]; 500 g ai/ha) | phytotoxicity rating IPOHE ([22]; 500 g ai/ha) | AMBEL phytotoxicity rating (0-100) ([23]; 63 g al/ha) | AMBEL phytotoxicity rating (0-100) ([23]; 500 g al/ha)
95: phytotoxicity rating AMBEL ([19]; 125 g ai/ha) | CORN crop damage rating (0-100) ([25]; 500 g al/ha)
50: DIGSA phytotoxicity rating (0-100) ([4]; 63 g al/ha) | crop damage rating RICE ([9]; 125 g ai/ha) | RICE crop damage rating (0-100) ([24]; 500 g al/ha)
90: DIGSA phytotoxicity rating (0-100) ([4]; 500 g al/ha) | SORHA phytotoxicity rating (0-100) ([5]; 63 g al/ha) | SOY crop damage rating (0-100) ([12]; 63 g al/ha) | phytotoxicity rating SETVI ([20]; 125 g ai/ha)

N#Cc1cc([N+](=O)[O-])ccc1Oc1cc(-n2c(=O)n3n(c2=S)CCCC3)c(F)cc1Cl [Compound 8-12]
50: SORHA phytotoxicity rating (0-100) ([5]; 500 g al/ha) | crop damage rating RICE ([9]; 500 g ai/ha) | SOY crop damage rating (0-100) ([12]; 63 g al/ha) | phytotoxicity rating DIGSA ([16]; 500 g ai/ha) | AMBEL phytotoxicity rating (0-100) ([23]; 63 g al/ha)
30: SETVI phytotoxicity rating (0-100) ([7]; 500 g al/ha) | RICE crop damage rating (0-100) ([24]; 500 g al/ha)
80: CHEAL phytotoxicity rating (0-100) ([3]; 63 g al/ha) | IPOHE phytotoxicity rating (0-100) ([8]; 63 g al/ha)
95: phytotoxicity rating ABUTH ([18]; 125 g ai/ha)
40: ECHCG phytotoxicity rating (0-100) ([1]; 500 g al/ha) | phytotoxicity rating SORHA ([17]; 500 g ai/ha)
20: crop damage rating RICE ([9]; 125 g ai/ha)
60: SOY crop damage rating (0-100) ([12]; 500 g al/ha)
90: phytotoxicity rating AMARE ([14]; 125 g ai/ha) | phytotoxicity rating AMBEL ([19]; 125 g ai/ha) | phytotoxicity rating AMBEL ([19]; 500 g ai/ha)
0: ECHCG phytotoxicity rating (0-100) ([1]; 63 g al/ha) | DIGSA phytotoxicity rating (0-100) ([4]; 63 g al/ha) | DIGSA phytotoxicity rating (0-100) ([4]; 500 g al/ha) | SORHA phytotoxicity rating (0-100) ([5]; 63 g al/ha) | SETVI phytotoxicity rating (0-100) ([7]; 63 g al/ha) | crop damage rating CORN ([10]; 125 g ai/ha) | crop damage rating CORN ([10]; 500 g ai/ha) | crop damage rating SOY ([11]; 125 g ai/ha) | crop damage rating SOY ([11]; 500 g ai/ha) | phytotoxicity rating ECHCG ([13]; 125 g ai/ha) | phytotoxicity rating ECHCG ([13]; 500 g ai/ha) | phytotoxicity rating DIGSA ([16]; 125 g ai/ha) | phytotoxicity rating SORHA ([17]; 125 g ai/ha) | phytotoxicity rating SETVI ([20]; 125 g ai/ha) | phytotoxicity rating CASOB ([21]; 125 g ai/ha) | phytotoxicity rating CASOB ([21]; 500 g ai/ha) | phytotoxicity rating IPOHE ([22]; 125 g ai/ha) | RICE crop damage rating (0-100) ([24]; 63 g al/ha) | CORN crop damage rating (0-100) ([25]; 63 g al/ha) | CORN crop damage rating (0-100) ([25]; 500 g al/ha)
100: AMARE phytotoxicity rating (0-100) ([2]; 500 g al/ha) | ABUTH phytotoxicity rating (0-100) ([6]; 63 g al/ha) | ABUTH phytotoxicity rating (0-100) ([6]; 500 g al/ha) | phytotoxicity rating AMARE ([14]; 500 g ai/ha) | phytotoxicity rating CHEAL ([15]; 125 g ai/ha) | phytotoxicity rating CHEAL ([15]; 500 g ai/ha) | phytotoxicity rating ABUTH ([18]; 500 g ai/ha)
70: AMARE phytotoxicity rating (0-100) ([2]; 63 g al/ha) | CHEAL phytotoxicity rating (0-100) ([3]; 500 g al/ha) | IPOHE phytotoxicity rating (0-100) ([8]; 500 g al/ha) | phytotoxicity rating SETVI ([20]; 500 g ai/ha) | phytotoxicity rating IPOHE ([22]; 500 g ai/ha) | AMBEL phytotoxicity rating (0-100) ([23]; 500 g al/ha)

Reference: patent US6479435B1, “Diaryl ethers and processes for their preparation and herbicidal and desiccant compositions containing them” (ISK Americas Incorporated, priority 1997, dated 2002)
